From article PMC7380166, “How to Study the Metabolism of New Psychoactive Substances for the Purpose of Toxicological Screenings—A Follow-Up Study Comparing Pooled Human Liver S9, HepaRG Cells, and Zebrafish Larvae” (Frontiers in Chemistry, 2020)
Where two headings read alike, the source gives them in different places.

Experiments:
[1] = n = 2, according to literature, cited from earlier work
HepaRG cells = test: Incubations with HepaRG cells, metabolite identification by LC-HRMS/MS; type: in vitro ADME, human; details: 24 h, cell culture medium, one replicate of n = 3, n.d. = not detected; for Absolute peak area, HepaRG [25 μM]: 25 μM parent NPS; for Absolute peak area, HepaRG [250 μM]: 250 μM parent NPS
zebrafish larvae = test: Zebrafish larvae exposure, metabolite identification by LC-HRMS/MS; details: larvae 4 dpf, 24 h, larvae extract, one replicate of n = 3, n.d. = not detected; for Absolute peak area, Zebrafish larvae [100 µM]: 100 µM parent NPS in medium; for Absolute peak area, Zebrafish larvae [25 μM]: 25 μM 4F-MDMB-BINACA in medium
[2] = 4F-PHP and metabolites, ref Wagmann et al., 2019a
[3] = 3,4-DMA-NBOMe and metabolites, ref Caspar et al., 2018
[4] = ephylone and metabolites, ref Wagmann et al., 2019a
[5] = 1P-LSD and metabolites, ref Wagmann et al., 2019b

## CC(O)CCC(C(=O)c1ccc(F)cc1)N1CCCC1 (stereo not shown) [MP5]
[1]; [2]
  Detection in pHLS9 [25 µM]: +
HepaRG cells
  Absolute peak area, HepaRG [25 μM]: 1.14E+06
  Absolute peak area, HepaRG [250 μM]: 1.07E+07
Zebrafish larvae
  Absolute peak area, Zebrafish larvae [100 µM]: 7.71E+06

## CCC(=O)n1cc2c3c(cccc31)C1=C[C@@H](C(=O)O)CN(C)[C@@H]1C2 [ML8]
Zebrafish larvae
  Absolute peak area, Zebrafish larvae [100 µM]: 1.07E+06

## CCN(CC)C(=O)C1C=C2c3cccc4[nH]cc(c34)C(O)C2NC1 (stereo not shown) [ML10]
Zebrafish larvae
  Absolute peak area, Zebrafish larvae [100 µM]: 6.10E+04

## CCNC(=O)[C@@H]1C=C2c3cccc4c3c(cn4C(=O)CC)C[C@H]2NC1 [ML12]
Zebrafish larvae
  Absolute peak area, Zebrafish larvae [100 µM]: 4.11E+05

## CC1(CO)COC(=O)[C@H]1NC(=O)c1nn(CCCCF)c2ccccc12 (stereo partly shown) [MB12]
Zebrafish larvae
  Absolute peak area, Zebrafish larvae [25 μM]: 1.68E+06

## COc1ccc(CC(C)NCc2ccccc2O)cc1OC (stereo not shown) [MN7]
[1]; [3]
  Detection in pHLS9 [25 µM]: +
HepaRG cells
  Absolute peak area, HepaRG [25 μM]: 1.19E+07
  Absolute peak area, HepaRG [250 μM]: 1.17E+08
Zebrafish larvae
  Absolute peak area, Zebrafish larvae [100 µM]: 1.19E+08

## CCN(CCOC1OC(C(=O)O)C(O)C(O)C1O)C(=O)C1C=C2c3cccc4[nH]cc(c34)CC2N(C)C1 (stereo not shown) [ML28]
HepaRG cells
  Absolute peak area, HepaRG [250 μM]: 1.07E+05

## CCCCC(C(O)c1ccc(F)cc1)N1CCCC1 (stereo not shown) [MP2]
[1]; [2]
  Detection in pHLS9 [25 µM]: +
HepaRG cells
  Absolute peak area, HepaRG [25 μM]: 1.18E+07
  Absolute peak area, HepaRG [250 μM]: 6.41E+07
Zebrafish larvae
  Absolute peak area, Zebrafish larvae [100 µM]: 2.98E+07

## CC(C)(C)[C@H](NC(=O)c1nn(CCCC(=O)O)c2ccccc12)C(=O)O [MB10]
HepaRG cells
  Absolute peak area, HepaRG [25 μM]: 1.68E+05
  Absolute peak area, HepaRG [250 μM]: 8.32E+05
Zebrafish larvae
  Absolute peak area, Zebrafish larvae [25 μM]: 5.72E+04

## COc1ccc(CC(C)N(O)Cc2ccccc2O)cc1OC (stereo not shown) [MN9]
Zebrafish larvae
  Absolute peak area, Zebrafish larvae [100 µM]: 3.57E+05

## COC(=O)C(NC(=O)c1nn(CCCC(=O)OC2OC(C(=O)O)C(O)C(O)C2O)c2ccccc12)C(C)(C)C (stereo not shown) [MB24]
Zebrafish larvae
  Absolute peak area, Zebrafish larvae [25 μM]: 2.34E+05

## CCCCC(C(=O)c1ccc(F)cc1)N1CCCC1=O (stereo not shown) [MP4]
[1]; [2]
  Detection in pHLS9 [25 µM]: +
Zebrafish larvae
  Absolute peak area, Zebrafish larvae [100 µM]: 8.64E+05

## CCCCC(C(=O)c1ccc(F)cc1)N1CCC(=O)C1 (stereo not shown) [MP3]
Zebrafish larvae
  Absolute peak area, Zebrafish larvae [100 µM]: 7.58E+04

## CCCC(C(=O)c1ccc2c(c1)OCO2)N(O)CC (stereo not shown) [ME7]
[1]; [4]
  Detection in pHLS9 [25 µM]: +
HepaRG cells
  Absolute peak area, HepaRG [250 μM]: 1.75E+06
Zebrafish larvae
  Absolute peak area, Zebrafish larvae [100 µM]: 1.10E+06

## CCN(CC)C(=O)[C@@H]1C=C2c3cccc4c3C(O)(C[C@H]2N(C)C1)C(=O)N4 (stereo partly shown) [ML18, 2−oxo−3−hydroxy LSD]
[1]; [5]
  Detection in pHLS9 [25 µM]: +
HepaRG cells
  Absolute peak area, HepaRG [25 μM]: 7.00E+06
  Absolute peak area, HepaRG [250 μM]: 3.67E+06
Zebrafish larvae
  Absolute peak area, Zebrafish larvae [100 µM]: 6.93E+06

## CCN(CC)C(=O)[C@@H]1C=C2c3cccc4[nH]cc(c34)C[C@H]2NC1 [ML5]
[1]; [5]
  Detection in pHLS9 [25 µM]: +
HepaRG cells
  Absolute peak area, HepaRG [25 μM]: 1.75E+07
  Absolute peak area, HepaRG [250 μM]: 3.37E+07
Zebrafish larvae
  Absolute peak area, Zebrafish larvae [100 µM]: 1.07E+07

## CC(C)(C)[C@H](NC(=O)c1nn(CCCCF)c2ccccc12)C(=O)O[C@@H]1O[C@H](C(=O)O)[C@@H](O)[C@H](O)[C@H]1O [MB22]
HepaRG cells
  Absolute peak area, HepaRG [25 μM]: 2.56E+07
  Absolute peak area, HepaRG [250 μM]: 3.25E+07

## CN1C[C@H](C(N)=O)C=C2c3cccc4[nH]cc(c34)C[C@H]21 [ML1]
HepaRG cells
  Absolute peak area, HepaRG [250 μM]: 1.93E+06

## CCCC(NCC)C(O)c1ccc2c(c1)OCO2 (stereo not shown) [ME5]
[1]; [4]
  Detection in pHLS9 [25 µM]: +
Zebrafish larvae
  Absolute peak area, Zebrafish larvae [100 µM]: 7.64E+06

## COc1ccc(CC(C)NCc2ccccc2O[C@@H]2O[C@H](C(=O)O)[C@@H](O)[C@H](O)[C@H]2O)cc1OC (stereo partly shown) [MN22]
[1]; [3]
  Detection in pHLS9 [25 µM]: +

## CC(CCC(C(=O)c1ccc(F)cc1)N1CCCC1)OC1OC(C(=O)O)C(O)C(O)C1O (stereo not shown) [MP11]
[1]; [2]
  Detection in pHLS9 [25 µM]: +
Zebrafish larvae
  Absolute peak area, Zebrafish larvae [100 µM]: 1.15E+06

## CCNC(=O)[C@@H]1C=C2c3cccc4[nH]cc(c34)C[C@H]2NC1 [ML3]
HepaRG cells
  Absolute peak area, HepaRG [25 μM]: 3.89E+05
  Absolute peak area, HepaRG [250 μM]: 2.20E+06
Zebrafish larvae
  Absolute peak area, Zebrafish larvae [100 µM]: 3.30E+05

## CCNC(=O)[C@@H]1C=C2c3cccc4[nH]cc(c34)C[C@H]2N(C)C1 [ML4]
[1]; [5]
  Detection in pHLS9 [25 µM]: +
HepaRG cells
  Absolute peak area, HepaRG [25 μM]: 3.19E+07
  Absolute peak area, HepaRG [250 μM]: 2.58E+08
Zebrafish larvae
  Absolute peak area, Zebrafish larvae [100 µM]: 6.17E+07

## CCNC(=O)[C@@H]1C=C2c3cccc4c3c(cn4C(=O)CC)C[C@H]2N(C)C1 [ML17]
[1]; [5]
  Detection in pHLS9 [25 µM]: +
Zebrafish larvae
  Absolute peak area, Zebrafish larvae [100 µM]: 1.48E+08

## CC(O)CCC(C(O)c1ccc(F)cc1)N1CCCC1 (stereo not shown) [MP9]
HepaRG cells
  Absolute peak area, HepaRG [25 μM]: 8.15E+05
  Absolute peak area, HepaRG [250 μM]: 6.48E+06
Zebrafish larvae
  Absolute peak area, Zebrafish larvae [100 µM]: 3.78E+07

## COc1ccccc1CN(O)C(C)Cc1ccc(OC)c(OC)c1 (stereo not shown) [MN12]
HepaRG cells
  Absolute peak area, HepaRG [250 μM]: 4.60E+05
Zebrafish larvae
  Absolute peak area, Zebrafish larvae [100 µM]: 8.81E+06

## CCCCC(N)C(=O)c1ccc(F)cc1 (stereo not shown) [MP1]
[1]; [2]
  Detection in pHLS9 [25 µM]: +
HepaRG cells
  Absolute peak area, HepaRG [25 μM]: 1.48E+05
  Absolute peak area, HepaRG [250 μM]: 1.82E+06
Zebrafish larvae
  Absolute peak area, Zebrafish larvae [100 µM]: 4.83E+05

## CC1(C)COC(=O)[C@H]1NC(=O)c1n[nH]c2ccccc12 [MB2]
Zebrafish larvae
  Absolute peak area, Zebrafish larvae [25 μM]: 5.13E+05

## COC(=O)C(NC(=O)c1nn(CCCCF)c2ccccc12)C(C)(C)COC1OC(C(=O)O)C(O)C(O)C1O (stereo not shown) [MB25]
Zebrafish larvae
  Absolute peak area, Zebrafish larvae [25 μM]: 1.75E+07

## CCC(=O)n1cc2c3c(cccc31)C1=C[C@@H](C(=O)N(CC)CCO)CN(C)[C@@H]1C2 [ML23]
Zebrafish larvae
  Absolute peak area, Zebrafish larvae [100 µM]: 3.31E+07

## CCC(=O)n1cc2c3c(cccc31)C1=C[C@@H](C(=O)N(CC)CC)CN(C)[C@@H]1C2O (stereo partly shown) [ML24]
Zebrafish larvae
  Absolute peak area, Zebrafish larvae [100 µM]: 3.37E+07

## CCCCC(C(O[C@@H]1O[C@H](C(=O)O)[C@@H](O)[C@H](O)[C@H]1O)c1ccc(F)cc1)N1CCCC1 (stereo partly shown) [MP10]
[1]; [2]
  Detection in pHLS9 [25 µM]: +
HepaRG cells
  Absolute peak area, HepaRG [250 μM]: 2.91E+04

## CCCCC(C(=O)c1ccc(F)cc1)[N+]1([O-])CCCC1 (stereo not shown) [MP8]
HepaRG cells
  Absolute peak area, HepaRG [250 μM]: 1.47E+05
Zebrafish larvae
  Absolute peak area, Zebrafish larvae [100 µM]: 2.50E+06

## CCC(=O)n1cc2c3c(cccc31)C1=C[C@@H](C(=O)N(CC)CC)CN[C@@H]1C2 [ML20]
[1]; [5]
  Detection in pHLS9 [25 µM]: +
HepaRG cells
  Absolute peak area, HepaRG [25 μM]: 3.19E+04
  Absolute peak area, HepaRG [250 μM]: 3.74E+06
Zebrafish larvae
  Absolute peak area, Zebrafish larvae [100 µM]: 3.77E+07

## CN1C[C@H](C(=O)O)C=C2c3cccc4[nH]cc(c34)C[C@H]21 [ML2]
HepaRG cells
  Absolute peak area, HepaRG [25 μM]: 5.16E+06
  Absolute peak area, HepaRG [250 μM]: 1.39E+07
Zebrafish larvae
  Absolute peak area, Zebrafish larvae [100 µM]: 3.63E+05

## COc1ccccc1CNC(C)Cc1ccc(O)c(O)c1 (stereo not shown) [MN2]
[1]; [3]
  Detection in pHLS9 [25 µM]: +

## COc1ccc(CC(C)N)cc1OC (stereo not shown) [MN1]
[1]; [3]
  Detection in pHLS9 [25 µM]: +
HepaRG cells
  Absolute peak area, HepaRG [25 μM]: 4.04E+07
  Absolute peak area, HepaRG [250 μM]: 9.84E+07
Zebrafish larvae
  Absolute peak area, Zebrafish larvae [100 µM]: 3.29E+07

## CCN(CCO)C(=O)C1C=C2c3cccc4[nH]cc(c34)CC2N(C)C1 (stereo not shown) [ML14]
HepaRG cells
  Absolute peak area, HepaRG [25 μM]: 4.01E+05
  Absolute peak area, HepaRG [250 μM]: 4.63E+06
Zebrafish larvae
  Absolute peak area, Zebrafish larvae [100 µM]: 3.90E+06
